The record followed here is patent EP4818174A1, “ERIBULIN DERIVATIVE AND ANTIBODY-DRUG CONJUGATE THEREOF, AND MEDICAL USE THEREOF” ([…] CO., LTD., priority 2024, dated 2025).

Each structure is given as a SMILES string. Counter-ions that a name gives are not always drawn. Like-named read-outs stand apart in the source and are kept apart here.

Assay in all cases: Inhibitory activity on other cancer cell lines (similar method)
Format in all cases: cell-based

In one assay the test system is 22Rv1. The note with it: Homo sapiens. How it is done: (§1) On the day of the test, the cells were digested with 0.25% trypsin (Gibco, 25200-072), filtered with a sieve with a pore size of 40 µm, diluted with the corresponding medium until a cell density reached 1 × 10^4 cells/mL, and inoculated onto a 96-well white cell culture plate (Beyotime, FCP968), 100 µL of cells were added per well, the culture plate was put in a 37°C incubator (Thermo 311) containing 5% CO2, and the cells were further incubated for 24 hours. On Day 2, to-be-tested samples were prepared into a stock solution at a final concentration of […] with DMSO (Sigma, D1650), then diluted with the corresponding medium until a final concentration reached 200 nM, and then subjected to four-fold serial dilutions, to prepare solutions at a total of 9 concentrations. 100 µL of the diluted sample was added to a 96-well plate, the plate was put in a 37°C incubator containing 5% CO2, and the cells were further incubated for 144 hours. The cell culture plate was removed, 100 µL of cell viability assay agent (CellTiter-Glo® Luminescent Cell Viability Assay, Promega, G7571) was added to each well, and the reaction solution allowed to react in the dark for 5 minutes at room temperature. Luminescence values were read by a microplate reader (TECAN SPARK) and data were processed with Graphpad Prism 7 software.
(§2) Table 2: Inhibitory IC50 Values of Compounds PE-21EK and PE-AM4 in the Present Invention Against Other Cancer Cell Lines

For the next assay, the system named is A549. The note with it: Homo sapiens. How it is done: as §1, §2
Another assay has as its system DU145. The note with it: Homo sapiens. How it is done: as §1, §2
In a further assay the test system is H1975. The note with it: Homo sapiens. How it is done: as §1, §2
In the next assay the test system is HCC1937. The note with it: Homo sapiens. How it is done: as §1, §2
The subject of another assay is HS578T. The note with it: Homo sapiens, Hs-578T, read-out: Inhibitory IC50 values. How it is done: as §1, §2
A further assay relates to IGROV-1. The note with it: Homo sapiens. How it is done:
as §1, §2

In the next assay the test system is Lncap cell. The note with it: Homo sapiens, read-out: Inhibitory IC50 values. How it is done: as §1, §2
For a further assay, the system named is MDA-MB-453. The note with it: Homo sapiens. How it is done:
as §1, §2

Another assay has as its system MDAMB231. The note with it: Homo sapiens. How it is done:
as §1, §2

The subject of another assay is MIA PaCa-2. The note with it: Homo sapiens. How it is done:
as §1, §2

In the next assay the test system is NCI-H1650. The note with it: Homo sapiens. How it is done: as §1, §2
The next assay deals with NSCLC. The note with it: read-out: Inhibitory IC50 values. How it is done:
as §1, §2

The test system of the next assay is Renal cancer. The note with it: read-out: Inhibitory IC50 values. How it is done: as §1, §2
The subject of another assay is SW620. The note with it: Homo sapiens. How it is done:
as §1, §2

Setting [1] is: 22Rv1, cell source Prostate cancer, unit inferred, read-out: Inhibitory IC50 values.
[2] abbreviates: A549, cell source NSCLC, unit inferred, read-out: Inhibitory IC50 values.
Setting [3] is: DU-145, DU145, cell source Prostate cancer, unit inferred, read-out: Inhibitory IC50 values.
The mark [4] stands for this setting: NCI-H1975, H1975, cell source NSCLC, unit inferred, read-out: Inhibitory IC50 values.
The mark [5] stands for this setting: HCC1937, cell source Breast cancer, unit inferred, read-out: Inhibitory IC50 values.
The mark [6] stands for this setting: HS578T, cell source Breast cancer, unit inferred.
Setting [7] is: IGROV-1, cell source Ovarian cancer, unit inferred, read-out: Inhibitory IC50 values.
Where [8] appears, read: Lncap cell, cell source Prostate cancer, unit inferred.
Setting [9] is: MDA-MB-453, cell source Breast cancer, unit inferred, read-out: Inhibitory IC50 values.
The mark [10] stands for this setting: MDA-MB-231, MDAMB231, cell source Breast cancer, unit inferred, read-out: Inhibitory IC50 values.
Setting [11] is: MIA PaCa-2, cell source Pancreatic cancer, unit inferred, read-out: Inhibitory IC50 values.
[12] abbreviates: NCI-H1650, cell source NSCLC, unit inferred, read-out: Inhibitory IC50 values.
Where [13] appears, read: SW-620, SW620, cell source Colon cancer, unit inferred, read-out: Inhibitory IC50 values.

By IC50 is commonly meant the concentration needed to halve the response being measured. `C=C1C[C@@H]2CC[C@@]34C[C@H]5O[C@H]6[C@@H](O3)[C@H]3O[C@H](CC[C@@H]3O[C@H]6[C@H]5O4)CC(=O)C[C@@H]3[C@@H](OC)[C@@H](CC(=O)CNC(=O)OCCCCCO)O[C@H]3C[C@H]3O[C@@H](CC[C@@H]1O2)C[C@@H](C)C3=C` [PE-21EK]: the half-maximal inhibitory concentration (IC50) was found to be 0.125 nM with 22Rv1 (setting [1]); 0.194 nM in the assay on A549 (setting [2]); 0.501 nM with DU145 (setting [3]); 0.0708 nM in the assay with H1975 (setting [4]); 0.104 nM in the assay with HCC1937 (setting [5]); 0.0207 nM in the assay on HS578T (setting [6]). Further, the concentration for half-maximal inhibition (IC50) in the assay on IGROV-1 (setting [7]) worked out at 0.289 nM; with Lncap cell (setting [8]) it was 0.123 nM; in the assay on MDA-MB-453 (setting [9]) it was 0.0846 nM; in the assay with MDAMB231 (setting [10]) it was 0.218 nM; in the assay with MIA PaCa-2 (setting [11]) it was 0.158 nM; in the assay with NCI-H1650 (setting [12]) it was 0.262 nM. Besides, the 50% inhibitory concentration (IC50) in the assay on NSCLC was determined as 0.184 nM; in the assay with Renal cancer, 0.102 nM; in the assay on SW620 (setting [13]) it was 0.0221 nM.
Take `C=C1C[C@@H]2CC[C@@]34C[C@H]5O[C@H]6[C@@H](O3)[C@H]3O[C@H](CC[C@@H]3O[C@H]6[C@H]5O4)CC(=O)C[C@@H]3[C@@H](OC)[C@@H](CC(=O)N4CC(CO)C4)O[C@H]3C[C@H]3O[C@@H](CC[C@@H]1O2)C[C@@H](C)C3=C` [PE-AM4]: the 50% inhibitory concentration (IC50) with 22Rv1 (setting [1]) was determined as 0.741 nM; with A549 (setting [2]), 4.92 nM; in the assay on DU145 (setting [3]) it was 0.686 nM; in the assay with H1975 (setting [4]), 0.728 nM; with HCC1937 (setting [5]) it was 0.647 nM; in the assay on HS578T (setting [6]), 0.276 nM. Moreover, the IC50 turned out to be 0.623 nM with IGROV-1 (setting [7]); 0.457 nM in the assay with Lncap cell (setting [8]); 0.151 nM with MDA-MB-453 (setting [9]); 1.08 nM with MDAMB231 (setting [10]); 1.23 nM with MIA PaCa-2 (setting [11]); 1.56 nM with NCI-H1650 (setting [12]). In addition, the concentration for half-maximal inhibition (IC50) was 3.13 nM in the assay with NSCLC, 3.47 nM with Renal cancer and 1.3 nM with SW620 (setting [13]).
Turning to `C=C1C[C@@H]2CC[C@@]34C[C@H]5O[C@H]6[C@@H](O3)[C@H]3O[C@H](CC[C@@H]3O[C@H]6[C@H]5O4)CC(=O)C[C@@H]3[C@@H](OC)[C@@H](C[C@H](O)CN)O[C@H]3C[C@H]3O[C@@H](CC[C@@H]1O2)C[C@@H](C)C3=C` [PE-E, eribulin mesylate, reference compound], the IC50 in the assay on 22Rv1 (22Rv1, read-out: Inhibitory IC50 values) turned out to be 0.618 nM; in the assay on A549 (A549, read-out: Inhibitory IC50 values) it was 4.17 nM; in the assay with DU145 (DU-145, read-out: Inhibitory IC50 values), 1.68 nM; in the assay on H1975 (NCI-H1975, read-out: Inhibitory IC50 values) it was 0.505 nM; in the assay on HCC1937 (HCC1937, read-out: Inhibitory IC50 values) it was 2.85 nM; in the assay with HS578T, 0.188 nM. The concentration for half-maximal inhibition (IC50) in the assay with IGROV-1 (IGROV-1, read-out: Inhibitory IC50 values) came out at 0.439 nM; in the assay with Lncap cell (LNCaP), 1.3 nM; in the assay with MDA-MB-453 (MDA-MB-453, read-out: Inhibitory IC50 values), 19.3 nM; in the assay with MDAMB231 (MDA-MB-231, read-out: Inhibitory IC50 values), 0.805 nM; in the assay with MIA PaCa-2 (MIA PaCa-2, read-out: Inhibitory IC50 values) it was 0.668 nM; in the assay on NCI-H1650 (NCI-H1650, read-out: Inhibitory IC50 values), 2.35 nM. The half-inhibitory concentration (IC50) in the assay on NSCLC came to 0.649 nM; in the assay on Renal cancer, 0.755 nM; in the assay on SW620 (SW-620, read-out: Inhibitory IC50 values) it was 0.419 nM.
